Source: patent US10407467B2, “Polymyxin derivatives and their use in combination therapy together with different antibiotics” (priority 2013, dated 2019)
Where a name gives a salt, the structure may show the parent alone. Read-outs that look alike come from different tables or passages of the source. Bridge positions count the residues as written; N and C are the ends. Square brackets hold non-standard residues; d marks the D form. Peptide text beside a SMILES is read from it. * marks the point of attachment. ξ: configuration not given here. Acetyl(3-pyridyl) = O=C(Cc1cccnc1)*; Thr(3ξ) = CC(O)[C@H](N)C(=O)O; Dab = NCC[C@H](N)C(=O)O; Bz = O=C(c1ccccc1)*

Assays:
Assay type in all cases: cell-based
[1] = tested on: Klebsiella pneumoniae; assay: MIC, compound in combination with a second agent (broth microdilution); settings: 1:1 (wt:wt) combination with Rifampicin; MIC is total drug concentration
Procedure: (§1) To evaluate the potency and spectrum of the compounds both alone and in combination with another agent, susceptibility testing was performed against up to four strains of each of the four Gram negative pathogens, Escherichia coli, Pseudomonas aeruginosa, Klebsiella pneumoniae and Acinetobacter baumannii.
(§2) Ratios of components in a combination, such as 1:1, refers to a weight to weight ratio. The minimum inhibitory concentration (MIC) refers to the total drug concentration (e.g. test compound plus second agent, such as Rifampicin).
(§3) The inoculum was prepared by making a direct suspension of isolated colonies (selected from an 18-24 hour Mueller-Hinton agar plate) adjusted to the 0.5 McFarland standard.
(§4) The assays were performed in duplicate.
(§5) In cases where the duplicate values varied by less than 2-fold, the lower of the two values is reported. If a variation of greater than 2-fold was observed, the assay was considered non-valid. Several of the compounds were subjected to multiple tests, and where this is the case, the MIC reflects the modal value obtained.
(§6) The minimum inhibitory concentration refers to the total drug concentration (e.g. test compound plus Rifampicin). The compounds are used at equal mass within the combination. The weight refers to the mass of compound as used, for example the Example Compounds are used in their TFA or sulphate salt forms.
(§7) MICs refer to the total drug concentration. Thus, where a 1:1 combination is used, this is the amount of the test compound plus the second agent. For comparison, the MIC values for the second agent alone are also given.

[2] = tested on: Pseudomonas aeruginosa; assay: as above; settings: 1:1 (wt:wt) combination with Rifampicin; MIC is total drug concentration
Procedure: as §1, §2, §3, §4, §5, §6, §7

[3] = tested on: Klebsiella pneumoniae; assay: MIC, sole activity (no second agent); settings: Klebsiella pneumoniae
Procedure: as §1, §3, §4, §5
(§8) MICs were determined as described herein, except that a different supplier of Cation-adjusted MHB was used. […] Values are reported relative to Polymyxin B.

[4] = tested on: Escherichia coli; assay: MIC, sole activity (no second agent); settings: Escherichia coli
Procedure: as §1, §3, §4, §5, §8

[5] = tested on: Pseudomonas aeruginosa; assay: MIC, sole activity (no second agent); settings: Pseudomonas aeruginosa
Procedure: as §1, §3, §4, §5, §8

[6] = CCUG59348, read-out: MIC K. pneumoniae CCUG 59348
[7] = NCTC13442, read-out: MIC K. pneumoniae NCTC 13442
[8] = NCTC9001, read-out: MIC E. coli NCTC9001

With CC(C)C[C@@H]1NC(=O)[C@@H](Cc2ccccc2)NC(=O)[C@H](CCN)NC(=O)[C@@H](NC(=O)[C@H](CCN)NC(=O)[C@@H](NC(=O)c2ccccc2)C(C)O)CCNC(=O)[C@H](C(C)O)NC(=O)[C@H](CCN)NC(=O)[C@H](CCN)NC1=O (stereo partly shown) [Example C3, Benzoyl polymyxin B nonapeptide, sulphate salt, reference compound] (Bz-[Thr(3ξ)][Dab][Dab][Dab][dF]L[Dab][Dab][Thr(3ξ)]; lactam 3-C) the “MIC K. pneumoniae ATCC-BAA-2146” value [1] was 2 micrograms/mL, the “MIC K. pneumoniae CCUG-59348” value [1] was 8 micrograms/mL and the “MIC K. pneumoniae NCTC 13438” value [1] was 2 micrograms/mL. The “MIC P. aeruginosa CCUG 59626” value [2] was 1 micrograms/mL.
In the case of CC(C)C[C@@H]1NC(=O)[C@@H](Cc2ccccc2)NC(=O)[C@H](CCN)NC(=O)[C@@H](NC(=O)[C@H](CCN)NC(=O)[C@@H](NC(=O)Cc2cccnc2)C(C)O)CCNC(=O)[C@H](C(C)O)NC(=O)[C@H](CCN)NC(=O)[C@H](CCN)NC1=O (stereo partly shown) [Example C5, 3-pyridyl ethanoyl polymyxin B nonapeptide, reference compound] ({Acetyl(3-pyridyl)}-[Thr(3ξ)][Dab][Dab][Dab][dF]L[Dab][Dab][Thr(3ξ)]; lactam 3-C), the “MIC K. pneumoniae ATCC-BAA-2146” value [1] was 1 micrograms/mL, the “MIC K. pneumoniae CCUG-59348” value [1] was 4 micrograms/mL and the “MIC K. pneumoniae NCTC 13438” value [1] was 2 micrograms/mL. The “MIC P. aeruginosa CCUG 59626” value [2] was 0.25 micrograms/mL.
For CC(=O)O[C@H]1C[C@@]2(C)[C@@H](C[C@@H](O)[C@H]3[C@@]4(C)CC[C@@H](O)[C@@H](C)[C@@H]4CC[C@@]32C)/C1=C(\CCC=C(C)C)C(=O)O [Fusidic acid, reference compound], the MIC ([3]; Table 7I, K. pneumoniae ATCC4352, second agent none, read-out: MIC K. pneumoniae (ATCC4352)) was 16 µg/mL and the MIC ([4]; Table 7I, E. coli ATCC25922, second agent none, read-out: MIC E. coli (ATCC25922)) was > 32 µg/mL.
For C[C@@H](O)[C@H]1C(=O)N2C(C(=O)O)=C(S[C@@H]3CN[C@H](C(=O)N(C)C)C3)[C@H](C)[C@H]12 [Meropenem, reference compound], the MIC ([3]; ATCCBAA1706, K. pneumoniae ATCC BAA-1706, second agent none, read-out: MIC K. pneumoniae ATCC BAA-1706) was 16 µg/mL, the MIC ([3]; CCUG59348, K. pneumoniae CCUG 59348, second agent none, read-out: MIC K. pneumoniae CCUG 59348) was > 32 µg/mL and the MIC ([3]; NCTC13442, K. pneumoniae NCTC 13442, second agent none, read-out: MIC K. pneumoniae NCTC 13442) was 16 µg/mL. The MIC ([5]; CCUG59626, P. aeruginosa CCUG 59626, second agent none, read-out: MIC P. aeruginosa CCUG 59626) was 16 µg/mL and the MIC ([4]; E. coli NCTC9001, second agent none, read-out: MIC E. coli (NCTC9001)) was 0.125 µg/mL.
With Cc1onc(-c2ccccc2)c1C(=O)N[C@@H]1C(=O)N2[C@@H]1SC(C)(C)[C@@H]2C(=O)O [Oxacillin, reference compound] the MIC ([3]; Table 7G, K. pneumoniae ATCC4352, second agent none, read-out: MIC K. pneumoniae (ATCC4352)) was 16 µg/mL and the MIC ([4]; Table 7G, E. coli ATCC25922, second agent none, read-out: MIC E. coli (ATCC25922)) was > 32 µg/mL.
For CN(C)c1cc(NC(=O)CNC(C)(C)C)c(O)c2c1C[C@H]1C[C@H]3[C@H](N(C)C)C(O)=C(C(N)=O)C(=O)[C@@]3(O)C(O)=C1C2=O [Tigecycline, reference compound], the MIC [3, 6] was 2 µg/mL, the MIC [3, 7] was 2 µg/mL and the MIC ([5]; CCUG59626, read-out: MIC P. aeruginosa CCUG 59626) was 16 µg/mL. The MIC [4, 8] was 0.125 µg/mL.
For CN[C@H](CC(C)C)C(=O)N[C@H]1C(=O)N[C@@H](CC(N)=O)C(=O)N[C@H]2C(=O)N[C@H]3C(=O)N[C@H](C(=O)N[C@H](C(=O)O)c4cc(O)cc(O)c4-c4cc3ccc4O)[C@H](O)c3ccc(c(Cl)c3)Oc3cc2cc(c3O[C@@H]2O[C@H](CO)[C@@H](O)[C@H](O)[C@H]2O[C@H]2C[C@](C)(N)[C@H](O)[C@H](C)O2)Oc2ccc(cc2Cl)[C@H]1O [Vancomycin, reference compound], the MIC [3, 6] was > 32 µg/mL, the MIC ([3]; CCUG59626, read-out: MIC K. pneumoniae CCUG 59626) was > 32 µg/mL and the MIC [3, 7] was > 32 µg/mL. For the same compound, the MIC [4, 8] was > 32 µg/mL.
